Data: patent US20240116961A1, “TRIPHENYPHOSPHINE MODIFIED SERTRALINE DERIVATIVE AND METHODS THEREOF” (XIAMEN UNIVERSITY, priority 2022, published 2024)

Experiments:
[1] = tested on: tumor cells; experiment: Mitophagy by transmission electron microscopy; format: cell-based; conditions: concentration 0.3 μM, work time 3 hours; FIG. 3
Method: • (1) Apparatus: Transmission electron microscope Hitachi HT-7800 • (2) Reagent: glutaraldehyde • (3) Experimental method: cells are inoculated in a 6 cm diameter Petri dish and incubated with the compounds for 3 hours. The culture solution is poured out; a 2 mL glutaraldehyde working solution (2.5% glutaraldehyde and phosphate buffer (PB) system) restored to room temperature is added and put into a refrigerator at 4° C. after fixation for 15 minutes at room temperature; the fixation solution is diluted 2-3 times with PB after fixation for 2-3 hours, the PB used for washing is poured off, PB containing 5% Bovine albumin (BSA) is added with an amount of 1 mL, and the adherent fixed cells are scraped off using a cell scraper, collected into 1.5 mL centrifuge tubes, and centrifuged for 4-5 minutes at 2,500 revolutions per minute (rpm) at 4° C. to prepare samples. The images are analyzed by a transmission electron microscope.

[2] = Immunohistochemistry of heart, liver, spleen, lung and kidney in tumor-bearing mice; format: in vivo, BALB/c (nu/nu) nude mice; conditions: 1 mg/kg intraperitoneal injection once a day for 15 days; FIG. 6
Method: BALB/c (nu/nu) nude mice (with weights of 18-20 g and raised in an SPF-level animal room) are selected to construct a mouse transplantation tumor model in vitro, the mice are grouped and inoculated with human non-small cell lung cancer cells (A549), and tumor volumes in the mice grow to 100-300 mm^3. The drug is administered by intraperitoneal injection, and each mouse in an administration group is administered once a day and 1 mg/kg once according to body weight. In a control group, each mouse is administrated with a same volume of PBS buffer, the volume of each mouse is measured simultaneously, and the drug is continuously administered for 15 days. After the drug administration and treatment process is complete, the mice are killed by cervical dislocation, and the mouse tumors are stripped, photographed, and weighed.

SMILES	autophagosome formation / mitophagy [1]	toxic side effects (heart, liver, spleen, lung, kidney) [2]
CN(C(=O)CCCCCCCCCCCC[P+](c1ccccc1)(c1ccccc1)c1ccccc1)[C@H]1CC[C@@H](c2ccc(Cl)c(Cl)c2)c2ccccc21 [Mito-12-Ser, (13-(((1S,4S)-4-(3,4-dichlorophenyl)-1,2,3,4-tetrahydronaphthalen-1-yl)(methyl)amino)-13-oxytridecyl)triphenylphosphine]	induce autophagosome formation to phagocytize mitochondria	–
CN(C(=O)CC[P+](c1ccccc1)(c1ccccc1)c1ccccc1)[C@H]1CC[C@@H](c2ccc(Cl)c(Cl)c2)c2ccccc21 [Mito-2-Ser, (3-(((1S,4S)-4-(3,4-dichlorophenyl)-1,2,3,4-tetrahydronaphthalen-1-yl)(methyl)amino)-3-propanoyl)triphenylphosphine]	induce autophagosome formation to phagocytize mitochondria	–
CN(C(=O)CCCCCCCCCC[P+](c1ccccc1)(c1ccccc1)c1ccccc1)[C@H]1CC[C@@H](c2ccc(Cl)c(Cl)c2)c2ccccc21 [Mito-10-Ser, (11-(((1S,4S)-4-(3,4-dichlorophenyl)-1,2,3,4-tetrahydronaphthalen-1-yl)(methyl)amino)-11-oxoundecyl)triphenylphosphine]	–	did not have significant toxic side effects
